In ChEMBL document CHEMBL1201862, “PubChem BioAssay data set” (2004):
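Results reflect a 48-hour exposure of cells in 96-well plates to compound at five concentrations. Here, GI50 denotes the concentration required for 50% inhibition of growth.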 Calls of active or inactive are those of the source. Rule as the data show it: active = GI50 up to about 1.1 µM and inactive = higher.

Legend:
Experiment in all cases: NCI-60 cell line screen, 48 h
MDA-MB-231 = test system: MDA-MB-231
M14 = test system: M14
OVCAR-4 = test system: OVCAR-4
OVCAR-5 = test system: OVCAR-5
DU-145 = test system: DU-145
COLO 205 = test system: COLO 205
CAKI-1 = test system: CAKI-1
OVCAR-3 = test system: OVCAR-3
KM12 = test system: KM12
A549 = test system: A549
PC-3 = test system: PC-3
HCT-116 = test system: HCT-116
NCI-H23 = test system: NCI-H23
SNB-19 = test system: SNB-19
SF-295 = test system: SF-295
MDA-MB-435 = test system: MDA-MB-435
TK-10 = test system: TK-10
UO-31 = test system: UO-31
RXF 393 = test system: RXF 393
EKVX = test system: EKVX
NCI/ADR-RES = test system: NCI/ADR-RES
ACHN = test system: ACHN
SNB-75 = test system: SNB-75
SW-620 = test system: SW-620
OVCAR-8 = test system: OVCAR-8
SK-MEL-28 = test system: SK-MEL-28
HCT-15 = test system: HCT-15
SF-539 = test system: SF-539
SN12C = test system: SN12C
SK-MEL-5 = test system: SK-MEL-5
HT-29 = test system: HT-29
IGROV-1 = test system: IGROV-1
U-251 = test system: U-251
NCI-H226 = test system: NCI-H226
HOP-92 = test system: HOP-92
SF-268 = test system: SF-268
HOP-62 = test system: HOP-62
K562 = test system: K562
786-0 = test system: 786-0
SK-MEL-2 = test system: SK-MEL-2
MDA-N = test system: MDA-N
NCI-H522 = test system: NCI-H522
A498 = test system: A498
UACC-62 = test system: UACC-62
Malme-3M = test system: Malme-3M
Hs-578T = test system: Hs-578T
MCF7 = test system: MCF7
SR = test system: SR
MOLT-4 = test system: MOLT-4
LOX IMVI = test system: LOX IMVI
RPMI-8226 = test system: RPMI-8226
SK-OV-3 = test system: SK-OV-3
CCRF-CEM = test system: CCRF-CEM
HL-60 = test system: HL-60
UACC-257 = test system: UACC-257

Measured: GI50

CCC1(c2ccc(N3C(=O)c4ccccc4C3=O)cc2)CCC(=O)NC1=O (stereo unspecified)
inactive: MDA-MB-231 > 10 µM | M14 > 10 µM | OVCAR-4 > 10 µM | OVCAR-5 > 10 µM | DU-145 > 10 µM | COLO 205 > 10 µM | CAKI-1 > 10 µM | OVCAR-3 > 10 µM | KM12 > 10 µM | A549 > 10 µM | PC-3 > 10 µM | HCT-116 > 10 µM | NCI-H23 > 10 µM | SNB-19 > 10 µM | SF-295 > 10 µM | MDA-MB-435 > 10 µM | TK-10 > 10 µM | UO-31 > 10 µM | RXF 393 > 10 µM | EKVX > 10 µM | NCI/ADR-RES > 10 µM | ACHN > 10 µM | SNB-75 > 10 µM | SW-620 > 10 µM | OVCAR-8 > 10 µM | SK-MEL-28 > 10 µM | SF-539 > 10 µM | SN12C > 10 µM | SK-MEL-5 > 10 µM | HT-29 > 10 µM | IGROV-1 > 10 µM | U-251 > 10 µM | NCI-H226 > 10 µM | HOP-92 > 10 µM | SF-268 > 10 µM
> 10 µM: HCT-15

CN(C)c1ccc(C=C2C(=O)N(c3ccccc3)N(c3ccccc3)C2=O)cc1
inactive: MDA-MB-231 > 100 µM | HOP-62 > 100 µM | K562 61.4 µM | M14 > 100 µM | OVCAR-5 > 100 µM | 786-0 71.1 µM | SK-MEL-2 > 100 µM | DU-145 > 100 µM | COLO 205 > 100 µM | MDA-N > 100 µM | NCI-H522 > 100 µM | A498 > 100 µM | UACC-62 > 100 µM | OVCAR-3 > 100 µM | KM12 74.8 µM | A549 78.9 µM | Malme-3M > 100 µM | PC-3 78 µM | HCT-116 > 100 µM | NCI-H23 > 100 µM | SNB-19 74.3 µM | SF-295 63.4 µM | MDA-MB-435 81.1 µM | TK-10 > 100 µM | Hs-578T 60.8 µM | UO-31 > 100 µM | EKVX > 100 µM | MCF7 > 100 µM | ACHN 81.8 µM | SNB-75 53.7 µM | SR > 100 µM | SW-620 > 100 µM | OVCAR-8 56.5 µM | SK-MEL-28 > 100 µM | SN12C > 100 µM | SK-MEL-5 > 100 µM | HT-29 72.8 µM | IGROV-1 > 100 µM | MOLT-4 65.6 µM | U-251 37 µM | LOX IMVI 76.6 µM | NCI-H226 > 100 µM | RPMI-8226 69 µM | SK-OV-3 > 100 µM | HOP-92 15.6 µM | SF-268 > 100 µM
> 100 µM: HCT-15

O=S(=O)(O)c1cc(O)c(/N=N/c2ccc(O)cc2O)c2ccccc12
64 µM: HCT-15
inactive: MDA-MB-231 85.7 µM | HOP-62 66.7 µM | K562 > 100 µM | M14 42.7 µM | OVCAR-4 > 100 µM | OVCAR-5 46.8 µM | 786-0 > 100 µM | SK-MEL-2 > 100 µM | COLO 205 38.1 µM | MDA-N > 100 µM | NCI-H522 24.1 µM | CAKI-1 > 100 µM | OVCAR-3 27.2 µM | CCRF-CEM 40.6 µM | KM12 20.9 µM | A549 59.3 µM | Malme-3M 76.4 µM | PC-3 53.5 µM | HCT-116 36.6 µM | SNB-19 > 100 µM | SF-295 61.8 µM | HL-60 80.5 µM | MDA-MB-435 51.3 µM | TK-10 > 100 µM | Hs-578T > 100 µM | RXF 393 > 100 µM | EKVX 30.9 µM | NCI/ADR-RES 38.6 µM | ACHN > 100 µM | SNB-75 > 100 µM | SR > 100 µM | SW-620 86.3 µM | OVCAR-8 30.8 µM | SK-MEL-28 > 100 µM | UACC-257 > 100 µM | SN12C > 100 µM | SK-MEL-5 > 100 µM | HT-29 8.97 µM | IGROV-1 22.8 µM | MOLT-4 42.2 µM | U-251 > 100 µM | LOX IMVI 53.1 µM | NCI-H226 3.17 µM | RPMI-8226 > 100 µM | SK-OV-3 49.1 µM | HOP-92 > 100 µM | SF-268 37.5 µM
